Assay results published in publication PMC9963009, “Investigation of the Protective Effect for GcMAF by a Glycosidase Inhibitor and the Glycan Structure of Gc Protein” (Molecules, 2023).

Molecular target: T1, α-N-acetylgalactosaminidase (α-GalNAc-ase) from chicken liver (Gallus gallus, UniProt Q90744)
T1 construct: gene NAGA; commercial enzyme from chicken liver
T1 sequence (Q90744 1-405): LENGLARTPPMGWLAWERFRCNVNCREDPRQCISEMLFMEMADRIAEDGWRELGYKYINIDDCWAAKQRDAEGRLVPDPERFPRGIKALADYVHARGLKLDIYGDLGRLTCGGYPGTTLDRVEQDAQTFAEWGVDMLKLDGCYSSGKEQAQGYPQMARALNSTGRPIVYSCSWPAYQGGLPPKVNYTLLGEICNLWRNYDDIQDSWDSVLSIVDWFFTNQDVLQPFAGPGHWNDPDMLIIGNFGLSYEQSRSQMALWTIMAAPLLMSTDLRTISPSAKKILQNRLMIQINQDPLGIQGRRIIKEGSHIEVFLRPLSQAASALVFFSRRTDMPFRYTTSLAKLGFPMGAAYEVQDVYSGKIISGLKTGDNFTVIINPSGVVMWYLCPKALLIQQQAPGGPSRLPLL
Test: LC-MS of Gc protein glycopeptides after treatment with a mix of three glycosidases with/without […] inhibitor
Assay type: biochemical

Compound: OCC1NC(CNCCc2ccccc2)C(O)C1O (stereo not shown) [iminocyclitol, 2-Hydroxymethyl-5-(phenethylaminomethyl)-pyrrolidine-3,4-diol]
- LC-MS of Gc protein glycopeptides after treatment with a mix of three glycosidas: the inhibitory activity of iminocyclitol against α-GalNAc-ase was also observed (Figure 4c)
